# Values quoted from earlier work as cited in US8586739B2, “Heterocyclic compounds and their uses” (Amgen Inc., priority 2007, dated 2013).
# Assays:
# p110δ = settings: cited from earlier work
# protein kinases = settings: cited from earlier work
# murine model of asthma = settings: ovalbumin-induced airway inflammation; cited from earlier work
# [1] = tested on: mouse model of rheumatoid arthritis; settings: in vivo; cited from earlier work
# [2] = tested on: model of systemic lupus erythematosis; settings: in vivo; cited from earlier work
SMILES,inhibits p110δ (p110δ),activity against any protein kinases tested (protein kinases),inflammation and disease in a murine model of asthma (murine model of asthma),efficacy in a mouse model of rheumatoid arthritis [1],onset of disease in a model of systemic lupus erythematosis [2]
Cc1ccccc1-n1c(Cn2cnc3c(N)ncnc32)nc2cccc(C)c2c1=O [IC87114],high nanomolar range (triple digit),no activity,significantly ameliorate inflammation and disease,,
O=C1NC(=O)/C(=C\c2ccc3nccnc3c2)S1 [AS 605240],,,,efficacious,delay onset of disease
